Measured values: patent publication US9593307B2, “Defined media for expansion and maintenance of pluripotent stem cells” (Janssen Biotech, Inc., priority 2012, dated 2017)

Columns and labels:
[1] = system: human embryonic stem cell line H1; experiment: Culture in test media: growth and colony morphology (phase-contrast); type: cell-based; details: Example 5
Protocol: Cells of the human embryonic stem cell line H1 (at passage 35 to passage 40), cultured on MATRIGEL™ (Catalog No. 354230, 1:30 dilution; Corning Incorporated, Corning, N.Y.) coated dishes in mTeSR®1 media (Catalog No. 05850, Stem-Cell Technologies, Inc., Vancouver BC, Canada) and passaged using ethylenediaminetetraacetic acid (“EDTA”), were used as the starting population to test various media compositions. Cells were passaged as small colonies using 5-10 min EDTA (Catalog No. #170711E, Lonza Walkersville, Inc., Walkersville, Md.) treatment at room temperature. Cultures were routinely split in a ratio of 1:6 to 1:10 at each passage. Table I lists the initial media formulations tested for their ability to proliferate H1 cells while maintaining their undifferentiated morphology and pluripotency markers.
Media IH-1, IH-3, and IH-6 were selected for further evaluation.

[2] = system: human embryonic stem cell line H1; experiment: Real-time PCR of pluripotency and differentiation genes; type: cell-based; details: passage 3, Example 5
Source text: After passage 5, only IH-1 and IH-3 were further compared to the cells cultured in mTeSR®1 media (Catalog No. 05850, Stem-Cell Technologies, Inc., Vancouver BC, Canada). […]
Approximately 1% of the cells were SOX17+ (FIG. 7D) and ˜85% of the cells were FOXA2+ (FIG. 7E). FIG. 8A to FIG. 8F show images of immunofluorescence staining of H1 cells cultured in IH-3 media for 18 passages. These images illustrate that a significant number of OCT4 and SOX2 positive cells were also FOXA2+. H1 cells cultured in IH3 media had acquired a phenotype where at least 70% of the cells were OCT4+ NANOG+ SOX2+ KI-67+ ZFP42− and FOXA2+. This represents a population of cells not yet described in the art.

[3] = day 4 following seeding, IH-3-2 media with the given BSA
[4] = passage 3, IH-3-2 media with the given BSA

Sigma BSA: 2% Sigma BSA (catalog No. A2153; Lot: 061M1804V, Sigma Aldrich) used to supplement IH-3-2 media
Cell morphology [1, 3]: morphological evidence of differentiated cells
Cell morphology [1, 4]: morphological evidence of differentiated cells
Confluency of cells ([1]; passage 3, compared to fatty acid free BSA): significant drop in confluency
Markers associated with a differentiated cell (AFP, MIXL1, T (BRY); PCR) [2]: significant upregulation

fatty acid-free BSA: fatty-acid free BSA (Catalog No. 7500804; Lot: 11G54001, LAMPIRE Biological Laboratories) in IH-3-2 media
Cell morphology [1, 3]: no gross differentiated cell morphology evident
Cell morphology [1, 4]: no gross differentiated cell morphology evident
